Assay results taken from ChEMBL document CHEMBL4699496, “Exploring efficacy of natural-derived acetylphenol scaffold inhibitors for α-glucosidase: Synthesis, in vitro and in vivo biochemical studies” (Bioorg Med Chem Lett, 2020).
pIC50: −log10 of the molar value. Activity calls are given as the source filed them. The calls are words filed in the database; no cut-off is given here.

Assays:
Rattus norvegicus [1] = species on record: Rattus norvegicus; assay: Inhibition of alpha-glucosidase in rat everted intestinal sleeves assessed as reduction in glucose concentration within intestinal sleeves at 0.5 mM measured for 5 to 90 mins; assay type: tissue-based; conditions: Intestine, time min 5-90
[2] = Inhibition of alpha-glucosidase (unknown origin); design: species or system Homo sapiens; conditions: read-out: IC50
Mus musculus [3] = species on record: Mus musculus; assay: Hypoglycemic activity in Kunming mouse assessed as reduction in maltose-induced postprandial blood glucose level measured after 15 to 120 mins by maltose loading test; assay type: functional, organism-based; conditions: time min 15-120
Mus musculus [4] = species on record: Mus musculus; assay: Hypoglycemic activity in Kunming mouse assessed as reduction in maltose-induced blood glucose AUC (0 to 120 mins) by maltose loading test; assay type: functional, organism-based; conditions: time min 0-120
Rattus norvegicus [5] = species on record: Rattus norvegicus; assay: Inhibition of alpha-glucosidase in rat everted intestinal sleeves assessed as reduction in glucose concentration outside of the intestinal sleeves at 0.5 mM measured after 5 to 90 mins; assay type: tissue-based; conditions: Intestine, time min 5-90
Rattus norvegicus [6] = species on record: Rattus norvegicus; assay: Inhibition of alpha-glucosidase in rat everted intestinal sleeves assessed as reduction in blood glucose AUC (0-90) within intestinal sleeves at 0.5 mM; assay type: tissue-based; conditions: Intestine, time min 0-90
Rattus norvegicus [7] = species on record: Rattus norvegicus; assay: Inhibition of alpha-glucosidase in rat everted intestinal sleeves assessed as reduction in blood glucose AUC (0-90) outside of the intestinal sleeves at 0.5 mM; assay type: tissue-based; conditions: Intestine, time min 0-90

inhibition (Rattus norvegicus [1]): Active
pIC50 [2]: 4.24
inhibition (Rattus norvegicus [5]): Active
inhibition (Rattus norvegicus [6]): Active
inhibition (Rattus norvegicus [7]): Active
SMILES: C[C@H]1O[C@H](O[C@H]2[C@H](O)[C@@H](O)[C@@H](O[C@H]3[C@H](O)[C@@H](O)C(O)O[C@@H]3CO)O[C@@H]2CO)[C@H](O)[C@@H](O)[C@@H]1N[C@H]1C=C(CO)[C@@H](O)[C@H](O)[C@H]1O (some centres not stated) [ACARBOSE]
Activity (Mus musculus [3]): Active
Activity (Mus musculus [4]): Active
